# Laboratory results taken from patent US9802920B2, “Inhibitors of bruton's tyrosine kinase” (HOFFMANN-LA ROCHE INC., priority 2013, dated 2017).
# Molecular target: Btk enzyme (His-tagged, full-length) (Homo sapiens (Human), UniProt Q06187)
# Assay: Bruton's Tyrosine Kinase (Btk) Inhibition Assay, radioactive 33P filtration capture
# Format: biochemical
# Conditions: 100 μM ATP, 30 μM peptide substrate; read-out: Radiometric IC50
# Text: Bruton's Tyrosine Kinase (Btk) Inhibition Assay
# The assay is a capture of radioactive ^33P phosphorylated product through filtration. The interactions of Btk, biotinylated SH2 peptide substrate (Src homology), and ATP lead to phosphorylation of the peptide substrate. Biotinylated product is bound streptavidin sepharose beads. All bound, radiolabeled products are detected by scintillation counter.
# Plates assayed are 96-well polypropylene (Greiner) and 96-well 1.2 μm hydrophilic PVDF filter plates (Millipore). Concentrations reported here are final assay concentrations: 10-100 μM compounds in DMSO (Burdick and Jackson), 5-10 nM Btk enzyme (His-tagged, full-length), 30 μM peptide substrate (Biotin-Aca-[…]-NH2), 100 μM ATP (Sigma), 8 mM imidazole (Sigma, pH 7.2), 8 mM glycerol-2-phosphate (Sigma), 200 μM EGTA (Roche Diagnostics), 1 mM MnCl2 (Sigma), 20 mM mgCl2 (Sigma), 0.1 mg/mL BSA (Sigma), 2 mM DTT (Sigma), 1 μCi ^33P ATP (Amersham), 20% streptavidin sepharose beads (Amersham), 50 mM EDTA (Gibco), 2 M NaCl (Gibco), 2 M NaCl w/1% phosphoric acid (Gibco), microscint-20 (Perkin Elmer).
# IC50 determinations are calculated from 10 data points per compound utilizing data produced from a standard 96-well plate assay template. One control compound and seven unknown inhibitors were tested on each plate and each plate was run twice. Typically, compounds were diluted in half-log starting at 100 μM and ending at 3 nM. The control compound was staurosporine. Background was counted in the absence of peptide substrate. Total activity was determined in the presence of peptide substrate. The following protocol was used to determine Btk inhibition.
# Sample preparation: The test compounds were diluted at half-log increments in assay buffer (imidazole, glycerol-2-phosphate, EGTA, MnCl2, mgCl2, BSA).
# 1) Rinse beads by centrifuging at 500 g
# 2) Reconstitute the beads with PBS and EDTA to produce a 20% bead slurry
# 3) Pre-incubate reaction mix without substrate (assay buffer, DTT, ATP, ^33P ATP) and mix with substrate (assay buffer, DTT, ATP, ^33P ATP, peptide substrate) 30° C. for 15 min.
# 4) To start assay, pre-incubate 10 μL Btk in enzyme buffer (imidazole, glycerol-2-phosphate, BSA) and 10 μL of test compounds for 10 min at RT.
# 5) Add 30 μL reaction mixture without or with substrate to Btk and compounds.
# 6) Incubate 50 μL total assay mix for 30 min at 30° C.
# 7) Transfer 40 μL of assay to 150 μL bead slurry in filter plate to stop reaction.
# 8) Wash filter plate after 30 min, with following steps
# 3×250 μL NaCl containing 1% phosphoric acid
# 9) Dry plate for 1 h at 65° C. or overnight at RT
# 10) Add 50 μL microscint-20 and count ^33P cpm on scintillation counter. […]
# Chain of Btk enzyme (His-tagged, full-length) (Q06187 whole entry): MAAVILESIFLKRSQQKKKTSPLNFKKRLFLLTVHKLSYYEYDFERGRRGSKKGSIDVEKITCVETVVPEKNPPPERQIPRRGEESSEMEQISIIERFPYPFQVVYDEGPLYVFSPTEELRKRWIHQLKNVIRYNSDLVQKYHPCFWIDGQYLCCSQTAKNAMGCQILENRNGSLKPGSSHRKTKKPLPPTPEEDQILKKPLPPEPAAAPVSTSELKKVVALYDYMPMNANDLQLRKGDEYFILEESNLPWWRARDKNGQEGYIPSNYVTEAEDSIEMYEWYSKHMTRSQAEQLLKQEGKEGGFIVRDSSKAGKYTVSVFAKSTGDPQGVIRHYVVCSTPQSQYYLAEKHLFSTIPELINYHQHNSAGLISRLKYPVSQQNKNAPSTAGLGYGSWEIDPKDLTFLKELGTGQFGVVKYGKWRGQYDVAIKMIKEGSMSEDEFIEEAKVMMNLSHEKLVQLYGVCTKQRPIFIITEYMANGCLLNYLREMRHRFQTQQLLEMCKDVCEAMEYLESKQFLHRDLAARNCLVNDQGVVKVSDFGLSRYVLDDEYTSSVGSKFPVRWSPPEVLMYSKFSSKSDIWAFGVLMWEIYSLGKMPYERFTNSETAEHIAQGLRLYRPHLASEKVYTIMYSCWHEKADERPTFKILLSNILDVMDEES
row,IC50,SMILES
1,0.869 µM,"Nc1c(C(=O)c2cc3ccccc3[nH]2)cnn1-c1ccc(Oc2ccccc2)nc1 [Compound I-2, [5-Amino-1-(6-phenoxy-pyridin-3-yl)-1H-pyrazol-4-yl]-(1H-indol-2-yl)-methanone]"
2,0.502 µM,"Nc1c(C(=O)c2cc3ccccc3[nH]2)cnn1-c1ccc(Oc2ccccn2)cc1 [Compound I-3, {5-Amino-1-[4-(pyridin-2-yloxy)-phenyl]-1H-pyrazol-4-yl}-(1H-indol-2-yl)-methanone]"
3,21.9 µM,"Nc1c(C(=O)c2cc3ccccc3[nH]2)cnn1-c1ccc(Oc2cccnc2)cc1 [Compound I-4, {5-Amino-1-[4-(pyridin-3-yloxy)-phenyl]-1H-pyrazol-4-yl}-(1H-indol-2-yl)-methanone]"
4,73.9 µM,"CC(C)Oc1ccc(-n2ncc(C(=O)c3cc4ccccc4[nH]3)c2N)cc1 [Compound I-11, [5-Amino-1-(4-isopropoxy-phenyl)-1H-pyrazol-4-yl]-(1H-indol-2-yl)-methanone]"

# Molecular target: inactivated state of Bruton's Tyrosine Kinase (Homo sapiens (Human), UniProt Q06187)
# Sequence (Q06187 whole entry): as above
# Assay: Bruton's Tyrosine Kinase (BTK) Inhibition TR-FRET competition assay
# Format: binding
# Conditions: Kinase Tracer 178, incubated 18-24 h at 14° C.
# Text: Calculate percent activity from raw data in cpm percent activity=(sample−bkg)/(total activity−bkg)×100 Calculate IC50 from percent activity, using one-site dose response sigmoidal model y=A+((B−A)/(1+((x/C)^D)))) x=cmpd conc, y=% activity, A=min, B=max, C=IC50, D=1 (hill slope) Bruton's Tyrosine Kinase (BTK) Inhibition TR-FRET (Time Resolved FRET) Assay
# This BTK competition assay measures compound potency (IC50) for the inactivated state of Bruton's Tyrosine Kinase using FRET (Förster/Flouresence Resonance Energy Transfer) technology. The BTK-Eu complex was incubated on ice one hour prior to use at a starting concentration of 50 nM BTK-Bioease™: 10 nM Eu-streptavidin (Perkin-Elmer Catalog# AD0062). The assay buffer consisted of 20 mM HEPES (pH 7.15), 0.1 mM DTT, 10 mM MgCl2, 0.5 mg/ml BSA with 3% Kinase Stabilizer (Fremont Biosolutions, Catalog # STB-K02). After 1 h, the reaction mixture from above was diluted 10 fold in assay buffer to make 5 nM BTK: 1 nM Eu-Streptavidin complex (donor fluorophore). 18 μl of a mixture of 0.11 nM BTK-Eu and 0.11 nM Kinase Tracer 178 (Invitrogen, Catalog # PV5593) with BTK-Eu alone as no negative control, was then dispensed into 384-well flat bottom plates (Greiner, 784076). Compounds to be tested in assay were prepared as 10× concentrations and serial dilution in half-log increments was performed in DMSO so as to generate 10 point curves. To initiate the FRET reaction, compounds prepared as 10× stock in DMSO was added to the plates and the plates were incubated 18-24 h at 14° C.
# After the incubation the plates were read on a BMG Pherastar Fluorescent plate reader (or equivalent) and used to measure the emission energy from the europium donor fluorophore (620 nm emission) and the FRET (665 nm emission). The negative control well values were averaged to obtain the mean minimum. The positive “no inhibitor” control wells were averaged to obtain the mean maximum. Percent of maximal FRET was calculated using following equation: % max FRET=100×[(FSRcmpd−FSRmean min)/(FSRmean max−FSRmean min)] where FSR=FRET Signal ratio. % Max FRET curves were plotted in Activity Base (Excel) and the IC50(%), hill slope, z′ and % CV were determined. The mean IC50 and standard deviation will be derived from duplicate curves (singlet inhibition curves from two independent dilutions) using Microsoft Excel.
SMILES,IC50,FRET IC50
Nc1c(C(=O)c2cc3ccccc3[nH]2)cnn1-c1ccc(Oc2ccccc2)c(Cl)c1 [Compound I-5],0.216 µM,–
"Nc1c(C(=O)c2cc3ccccc3[nH]2)cnn1-c1ccc(Oc2ccccc2)c(O)c1 [Compound I-8, [5-Amino-1-(3-hydroxy-4-phenoxy-phenyl)-1H-pyrazol-4-yl]-(1H-indol-2-yl)-methanone]",0.059 µM,–
"COc1cc(Oc2ccccc2)ccc1-n1ncc(C(=O)c2cc3ccccc3[nH]2)c1N [Compound I-9, [5-Amino-1-(2-methoxy-4-phenoxy-phenyl)-1H-pyrazol-4-yl]-(1H-indol-2-yl)-methanone]",0.146 µM,–
"Nc1c(C(=O)c2cc3ccccc3[nH]2)cnn1-c1ccc(Oc2ccccc2)cc1O [Compound I-10, [5-Amino-1-(2-hydroxy-4-phenoxy-phenyl)-1H-pyrazol-4-yl]-(1H-indol-2-yl)-methanone]",0.162 µM,–
"Nc1c(C(=O)c2cc3ccccc3[nH]2)cnn1-c1ccc(OC2CCCC2)cc1 [Compound I-12, [5-Amino-1-(4-cyclopentyloxy-phenyl)-1H-pyrazol-4-yl]-(1H-indol-2-yl)-methanone]",–,> 1 µM
"CC(C)(C)COc1ccc(-n2ncc(C(=O)c3cc4ccccc4[nH]3)c2N)cc1 [Compound I-13, {5-Amino-1-[4-(2,2-dimethyl-propoxy)-phenyl]-1H-pyrazol-4-yl}-(1H-indol-2-yl)-methanone]",–,> 1 µM
"Cc1cc(Oc2ccccc2C#N)ccc1-n1ncc(C(=O)c2cc3ccccc3[nH]2)c1N [Compound I-15, 2-{4-[5-Amino-4-(1H-indole-2-carbonyl)-pyrazol-1-yl]-3-methyl-phenoxy}-benzonitrile]",0.007 µM,–
"N#Cc1cccc(Oc2ccc(-n3ncc(C(=O)c4cc5ccccc5[nH]4)c3N)c(Cl)c2)c1 [Compound I-16, 3-{4-[5-Amino-4-(1H-indole-2-carbonyl)-pyrazol-1-yl]-3-chloro-phenoxy}-benzonitrile]",0.082 µM,–
"Cc1cc(Oc2cccc(C(N)=O)c2)ccc1-n1ncc(C(=O)c2nc3ccccc3[nH]2)c1N [Compound I-17, 3-{4-[5-Amino-4-(1H-benzoimidazole-2-carbonyl)-pyrazol-1-yl]-3-methyl-phenoxy}-benzamide]",0.23 µM,–
"Cc1cc(Oc2cccc(F)c2F)ccc1-n1ncc(C(=O)c2nc3ccccc3[nH]2)c1N [Compound I-18, {5-Amino-1-[4-(2,3-difluoro-phenoxy)-2-methyl-phenyl]-1H-pyrazol-4-yl}-(1H-benzoimidazol-2-yl)-methanone]",0.005 µM,–
"Nc1c(C(=O)c2cc3ccc(CN4CCOCC4)cc3[nH]2)cnn1-c1ccc(Oc2ccccc2)cc1 [Compound I-19, [5-Amino-1-(4-phenoxy-phenyl)-1H-pyrazol-4-yl]-(6-morpholin-4-ylmethyl-1H-indol-2-yl)-methanone]",0.0005 µM,–
"N#Cc1cccc(Oc2ccc(-n3ncc(C(=O)c4cc5ccc(CN6CCOCC6)cc5[nH]4)c3N)c(Cl)c2)c1 [Compound I-20, 3-{4-[5-Amino-4-(6-morpholin-4-ylmethyl-1H-indole-2-carbonyl)-pyrazol-1-yl]-3-chloro-phenoxy}-benzonitrile]",0.001 µM,–

# The remaining lines, values ahead:
IC50,FRET IC50,SMILES
0.041 µM,–,"Nc1c(C(=O)c2cc3ccccc3[nH]2)cnn1-c1ccc(Oc2ccccc2)c(F)c1 [Compound I-1, [5-Amino-1-(3-fluoro-4-phenoxy-phenyl)-1H-pyrazol-4-yl]-(1H-indol-2-yl)-methanone]"
1 µM,–,"Nc1c(C(=O)c2cc3ccccc3[nH]2)cnn1-c1ccc(Oc2ccc(F)c(F)c2)cc1 [Compound I-6, {5-Amino-1-[4-(3,4-difluoro-phenoxy)-phenyl]-1H-pyrazol-4-yl}-(1H-indol-2-yl)-methanone]"
0.003 µM,–,"Cc1cc(Oc2cccc(F)c2F)ccc1-n1ncc(C(=O)c2cc3ccccc3[nH]2)c1N [Compound I-14, {5-Amino-1-[4-(2,3-difluoro-phenoxy)-2-methyl-phenyl]-1H-pyrazol-4-yl}-(1H-indol-2-yl)-methanone]"
